Data taken from publication PMC12381739, “Druglike Molecular Degraders of the Oncogenic RNA-Binding Protein HuR” (JACS Au, 2025).

Experiments:
[1] = test system: MCF-7 and MDA-MB-231 cells; experiment: Cell counting-proliferation assay; format: cell-based, human; details: compared to Binders 1 and 2, at 24 and 48 h
Experimental: MCF-7 and MDA-MB-231 cells were seeded in 96-well plates to 80% confluency and treated with synthesized compounds at eight concentrations (0.1 nM–100 μM) for 24 and 48 h. Cell proliferation was assessed using the Resazurin Assay Kit (Abcam, ab228554), where each sample was incubated with 1× WST-8/CCK8 solution for 1 h. After incubation, fluorescence was measured by absorbance at 460 nm using the Synergy H1 Hybrid Multi-Mode Microplate Reader (Biotek, Agilent). Cell proliferation was calculated as the percent decrease in fluorescence of treated cells compared to untreated controls. All experiments were performed in triplicate.

Bcl2 and FOXQ1 mRNA = experiment: mRNA RT-qPCR of Bcl2 and FOXQ1 in MCF-7 cells; format: cell-based, human
Experimental: MCF-7 cells were seeded into 12-well plates (∼150,000 cells per well) at 60–70% confluency incubated for 12 h. The cells were then treated with different synthesized compounds at the indicated concentrations or with vehicle control for 24 and 48 h. After treatment, total RNA was extracted using the QuickRNA Miniprep Kit (Zymo Research) according to the manufacturer’s protocol, including DNase I treatment. Reverse transcription was performed on 1 μg of total RNA using the qScript cDNA Synthesis Kit (Quantabio) following the manufacturer’s instructions. Approximately 30 ng of cDNA were used for each qPCR reaction, which was carried out using the Luna Universal qPCR Master Mix (New England BioLabs, cat# E3010G) on a CFX Opus 384 Real-Time PCR System. Relative expression levels of Bcl-2 and FOXQ1 were calculated by normalizing to GAPDH expression using the ΔΔCt method.

HuR [2] = biological target: T1, HuR (Homo sapiens, UniProt Q15717); experiment: Proteasome inhibitor (bortezomib, MG132) mechanistic validation of HuR degradation in MCF-7 cells; format: cell-based; set-up: endogenous in cells; host or cells: MCF-7; details: MCF-7, with bortezomib or MG132
T1 sequence (Q15717 whole entry): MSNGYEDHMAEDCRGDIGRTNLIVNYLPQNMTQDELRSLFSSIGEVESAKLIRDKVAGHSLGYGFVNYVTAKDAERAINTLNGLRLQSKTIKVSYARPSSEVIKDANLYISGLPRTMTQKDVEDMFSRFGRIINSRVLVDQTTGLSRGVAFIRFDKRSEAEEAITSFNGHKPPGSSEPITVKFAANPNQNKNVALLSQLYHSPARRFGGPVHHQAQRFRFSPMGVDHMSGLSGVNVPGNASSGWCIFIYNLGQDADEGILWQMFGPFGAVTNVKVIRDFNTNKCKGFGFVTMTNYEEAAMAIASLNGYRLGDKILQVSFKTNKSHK
Experimental: MCF-7 cells were seeded in 6-well plates at approximately 60% confluency and incubated for 12 h. The cells were then treated with 1 μM of the proteasome inhibitors Bortezomib (Thermo Fisher Scientific, CAS: 179324-69-7) and MG132 (Aaron Chemicals, CAS: 1211877-36-9). After treatment, the synthesized compounds were added at a concentration of 10 μM, and the cells were incubated for 5 h.

HuR [3] = biological target: T1, HuR; experiment: HuR protein expression by western blot in MCF-7 cells; format: cell-based; set-up: endogenous in cells; host or cells: MCF-7
Source text: Michigan Cancer Foundation-7 (MCF-7) cells were chosen due to their documented overexpression of HuR, which has been linked to cancer pathogenicity in this specific cell line. , Consequently, reducing HuR expression to physiologically normal levels is considered a potential strategy for novel anticancer therapies targeting breast cancers associated with HuR overexpression.
(§1) Total protein was extracted using RIPA cell lysis buffer (BioPrep) containing a protease inhibitor, and protein concentration was measured using the BCA protein assay (Sigma-Aldrich) according to the manufacturer’s protocol. Approximately 30 μg of total protein were resolved on a 12% SDS-acrylamide gel and transferred to a PVDF membrane (Immobilon FL transfer membrane; Merck). The membrane was washed with 1× Tris-buffered saline (TBS) containing 0.1% (v/v) Tween-20 (TBST; Tris-base, pH 7.6, NaCl, and Tween-20) and blocked in 1× TBST containing 5% (w/v) BSA for 2 h at room temperature. The membrane was then incubated overnight at 4 °C with primary antibodies: a 1:1000 dilution of rabbit anti-ELAVL1/HuR (Cell Signaling Technology, #12582), a 1:1000 dilution of mouse anti-Bcl2 (Cell Signaling Technology, #15071), or a 1:10,000 dilution of rabbit anti-Vinculin (Cell Signaling Technology, #13901) in 1× TBST containing 5% (w/v) BSA. Following primary antibody incubation, the membrane was washed with 1× TBST and incubated with a 1:10,000 dilution of the appropriate horseradish-peroxidase-conjugated secondary antibody (antirabbit IgG: Cell Signaling, #7074 or antimouse IgG: Cell Signaling, #7076) at room temperature for 2 h. After washing three times with 1X TBST (10 min per wash), protein bands were visualized using Clear Band ECL Substrate (Gene Bio-Application) on the Azure C300 Imaging System. The fold change in the expression of the target proteins (HuR or Bcl2) was calculated by normalizing the band intensity to the Vinculin band intensity using ImageJ.

HuR [4] = biological target: T1, HuR; experiment: HuR protein expression by western blot in MDA-MB-231 cells; format: cell-based; set-up: endogenous in cells; details: 48 h
Experimental: as §1, with “After washing three times with 1X TBST (10 min per wash), protein bands were visualized using Clear Band ECL Substrate (Gene Bio-Application) on the Azure C300 Imaging System.” left out

MCF-7 cells = experiment: Caspase-Glo 3/7 apoptosis assay; format: cell-based, human; details: MCF-7, 10 nM
Source text: To elucidate the decrease in cell viability observed, we evaluated the potential increase in apoptosis using the […] Caspase-Glo 3/7 assay system. Upon cell lysis, active caspases cleave a luminogenic substrate, releasing aminoluciferin, which is subsequently converted to light by luciferase. The intensity of the signal directly correlates with the levels of apoptosis. […] This destabilization reduces the levels of proteins essential for cancer cell survival, resulting in cumulative cellular stress, diminished proliferation, and enhanced cytotoxicity. […] This enhanced effect is likely due to the catalytic nature of the molecular glue degraders, offering promising potential for cancer treatment.
MCF-7 cells were seeded in 96-well plates to 80% confluency and treated with synthesized compounds at four concentrations (1 nM–1 μM) for 24 and 48 h. Cell apoptosis was analyzed using the Caspase-Glo 3/7 Assay System (Promega, G8090). Each sample was incubated with Caspase-Glo 3/7 solution for 1 h, followed by luminescence measurement. Luminescence was measured […] using the Synergy H1 Hybrid Multi-Mode Microplate Reader (Biotek, Agilent). Cell apoptosis was calculated as the percent increase in luminescence of treated cells compared to untreated controls. All experiments were performed in triplicate.

Q: Which results are given for O=C1CCC(N2C(=O)c3cccc(NCc4cn(-c5ccc6sc(C(=O)O)cc6c5)nn4)c3C2=O)C(=O)N1 (stereo not drawn) [PRO-HuR3]?
A: cell proliferation [1]: significant decrease in cell proliferation; Bcl2 mRNA expression relative to lower concentrations (Bcl2 and FOXQ1 mRNA; MCF-7, 1 μM): increase in Bcl2 expression; Bcl2 and FOXQ1 mRNA expression (Bcl2 and FOXQ1 mRNA; MCF-7, concentrations ranging from 1 nM to 100 nM): decrease in the expression of both genes; degrader activity under 26S proteasome inhibition (HuR [2]): completely impaired; reduction of HuR expression (HuR [3]; MCF-7, 10 nM, 48 h): 42%; onset of activity (HuR degradation) (HuR [3]; MCF-7, 10 μM): 48 h; time-dependent response of HuR degradation (HuR [3]; MCF-7, 10 μM): showed a time-dependent response; reduction of HuR expression (HuR [3]; MCF-7, 10 μM, 48 h): ~75%; degrader activity at intermediate concentration (hook effect) (HuR [3]; around 0.1 μM, 48 h, MCF-7 and MDA-MB-231): loss of degrader activity; reduction of HuR expression (HuR [4]; MDA-MB-231, 10 nM): 38%; reduction of HuR expression (HuR [4]; MDA-MB-231, 10 μM): ~75%; apoptosis (caspase 3/7) (MCF-7 cells): significant increase in apoptosis
